Eleven molecules from ChEMBL document CHEMBL4265928, “Design, synthesis, and biological evaluation of 2-(phenoxyaryl)-3-urea derivatives as novel P2Y1 receptor antagonists” (Eur J Med Chem, 2018) can be followed below.

One experiment has as its target P2Y purinoceptor 1 (Homo sapiens, UniProt P47900). As to the kind of experiment: Antagonist activity at P2Y1 (unknown origin) expressed in human 1321N1 cells assessed as induction of calcium stimulation by fluo-4 dye based assay. The class given is functional, cell-based.
The subject of another experiment is Rattus norvegicus. Nature of the experiment: Antiplatelet activity in Sprague-Dawley rat platelet rich plasma assessed as inhibition of ADP-induced platelet aggregation at 3 mg/kg, ig after 2 hrs relative to control. The class given is functional. The following applies: po.

Sequence of P2Y purinoceptor 1 (P47900 whole entry): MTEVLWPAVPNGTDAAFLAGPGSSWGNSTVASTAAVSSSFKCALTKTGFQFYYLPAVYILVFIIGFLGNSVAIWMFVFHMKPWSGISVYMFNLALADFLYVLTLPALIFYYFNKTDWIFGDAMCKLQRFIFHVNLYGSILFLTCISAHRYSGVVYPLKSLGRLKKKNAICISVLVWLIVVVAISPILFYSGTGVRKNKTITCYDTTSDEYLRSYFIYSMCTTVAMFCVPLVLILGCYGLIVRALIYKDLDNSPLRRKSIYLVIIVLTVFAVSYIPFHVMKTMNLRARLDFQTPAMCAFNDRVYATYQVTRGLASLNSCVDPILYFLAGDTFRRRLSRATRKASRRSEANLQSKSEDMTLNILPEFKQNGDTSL

The IC50 is the concentration needed to halve the response being measured. Broadly, the inhibition in vivo is the drop in the measured response relative to a control, in per cent. `CC(C)(C)c1ccccc1Oc1ncccc1NC(=O)N[C@H]1CC[C@H](C)CC1`: the IC50 on P2Y purinoceptor 1 worked out at 7.05 µM. For the same molecule, the inhibition in vivo at 3 mg/kg with Rattus norvegicus was determined as 57.6%.
The corresponding values for `CC(C)(C)c1ccccc1Oc1ncccc1NC(=O)NC1C2CC3CC(C2)CC1C3` (configuration not stated) are 0.62 µM and 26.7%.
With `CC(C)(C)c1ccccc1Oc1ncccc1NC(=O)Nc1ccc(OC(F)(F)F)cc1`, the inhibition in vivo at 3 mg/kg with Rattus norvegicus worked out at 67.4%.
In the case of `CC(C)(C)c1ccccc1Oc1ncccc1NC(=O)Nc1ccc(C(=O)OCc2ccccc2)s1`, the IC50 at P2Y purinoceptor 1 is 7.19 µM. Also, the inhibition in vivo at 3 mg/kg in the experiment with Rattus norvegicus is 69.4%.
Taken in the same sequence, the figures for `CCOC(=O)c1ccc(NC(=O)Nc2cccnc2Oc2ccccc2C(C)(C)C)s1` were 12.5 µM and 50.6%.
`CC(C)(C)c1ccccc1Oc1ncccc1NC(=O)NC1CCCC1`: the IC50 at P2Y purinoceptor 1 is 2.41 µM.
Take `CCCCNC(=O)Nc1cccnc1Oc1ccccc1C(C)(C)C`: the IC50 at P2Y purinoceptor 1 was found to be 9.98 µM. The inhibition in vivo at 3 mg/kg with Rattus norvegicus came out at 22%.
In the case of `CC1CCCCC1NC(=O)Nc1cccnc1Oc1ccccc1C(C)(C)C` (configuration not stated), the IC50 at P2Y purinoceptor 1 was determined as 0.82 µM.
The same measure, in the same setting: for `COC(=O)c1ccc(NC(=O)Nc2cccnc2Oc2ccccc2C(C)(C)C)s1` the value was 12.9 µM.
Take `Cc1ccc(NC(=O)Nc2ccc(OC(F)(F)F)cc2)c(Oc2ccccc2C(C)(C)C)n1`: the IC50 at P2Y purinoceptor 1 amounted to 0.21 µM. The inhibition in vivo at 3 mg/kg with Rattus norvegicus worked out at 68.9%.
For `CC(C)(C)c1ccccc1Oc1ccccc1NC(=O)Nc1ccc(OC(F)(F)F)cc1`, the IC50 on P2Y purinoceptor 1 stood at 7.53 µM.
